Measured values: patent US20170226059A1, “APOE4-TARGETED THERAPUTICS THAT INCREASE SIRT1” (The Regents of the University of California, priority 2014, published 2017)
“Also recorded” adds a separate entry of the source. Like-named read-outs stand apart in the source and are kept apart here.

Key:
[1] = tested on: p-tau; test: p-Tau levels in SHSY5Y; type: cell-based
Description: sAPPα or sAPPβ secreted into the cellular media are determined with sAPPα or sAPPβ AlphaLISA immunoassay kits (PerkinElmer) according to the manufacturer's protocol with some modifications. The standards, blanks, and media are diluted with the buffer provided in the kit and added to the plate. During the first incubation step, the analyte is captured either by an antibody recognizing the α-secretase cleavage site at sAPPα C-terminus (clone 2B3) or the sAPPβ C-terminus, and then by a second biotin-labeled antibody specific to the N-terminal common domain of sAPP. In the second incubation step, the biotinylated anti-analyte antibody is bound to the streptavidin-coated donor beads. At the end of this reaction, the plates are read on an EnSpire Alpha 2390 multilabel plate reader equipped with the AlphaScreen module. The Aβ1-42 or 1-40 are determined from media and/or cells using Life Science's sandwich ELISA kit. The levels of Aβ are quantified from a standard curve and normalized to total cellular protein (Spilman et al. (2014) Brain Res. 1551: 25-44; Theendakara et al. (2013) Proc. Natl. Acad. Sci. USA, 10(45): 18303-18308), Tau and p-tau are determined from cell extracts by a solid phase double antibody sandwich ELISA technology designed for quantitative determination of phospho-tau (Antibodies-Online). […]

[2] = tested on: SirT1 mRNA; test: SirT1 mRNA levels in A172 cells transfected with ApoE4 (quantitative real-time PCR); type: cell-based, human; details: A03 at 2 μM
Description: Total RNA from transfected and drug-treated cells is isolated using the High Pure RNA isolation kit (Roche) and 1 μg of RNA is reverse-transcribed. To analyze the mRNA levels of SirT1, real time PCR can be performed on first-strand cDNAs as described (Theendakara et al. (2013) Proc. Natl. Acad. Sci. USA, 10(45): 18303-18308). The real-time PCR can be performed in Light Cycler 480-384-multiwell plates (Roche). Primers for SirT1 were designed using the Roche universal probe library system and the primers were synthesized by Integrated DNA Technology. Real-time PCR can be performed in SYBR Green master mix with the corresponding primer sets. The melting curves of PCR products are monitored to ensure that a single melting curve is obtained. For analysis of the real-time PCR data, δCt values of samples are normalized to values obtained for GAPDH, which is assayed simultaneously. Relative quantification using the DeltaDelta Ct method can be adopted to calculate the relative quantity of SirT1 levels.

[3] = tested on: SirT1; test: Primary AlphaLISA screening assay: SirT1 levels in N2a cells stably transfected with ApoE4; type: cell-based, mouse; details: for SirT1 levels (dose-response): N2A neuroblastoma cells stably transfected with ApoE4
Description: We have developed a primary screening assay that is HTS formatable; the assay would be done on N2a cells (mouse neuroblastoma cells) that have been stably transfected with ApoE3 and ApoE4. The cells are treated with drugs and the SirT1 levels are measured using the AlphaLISA assay that we have developed, e.g., as shown in FIG. 11. The illustrated AlphaLISA uses an antibody (Ab, E104, Abcam) that binds the C-terminus of SirT1 and is on the acceptor bead. The N-terminal Ab (D1D7, Abcam) is biotinylated and binds to the donor bead. For the primary assay the Neuro-2a (N2a) cells stably expressing similar levels of hApoE3 or hApoE4 are used. The primary assay can be done in triplicate. The N2a cells have reasonably good endogenous levels of APP thus avoiding the necessity of APP transfection. In general, for the assays N2a cells stably transfected with hApoE3 (E3) or hApoE4 (E4) are plated, e.g., at […] in 384-well plates in […] of growth medium and allowed to attached for 3 h. The E4 cells are treated with compounds overnight, E3 cells are controls. The following day, growth medium is removed and cells are lysed with AlphaLysis buffer complemented with protease and phosphatase inhibitors.
Then, the AlphaLISA assay is run and molecules that can increase or reverse the SirT1 levels in ApoE4 cells are identified. A preliminary estimate, based on the initial screening which yielded two reproducible “hits” from a set of 1000 compounds, which is a 0.2% hit-rate. […] Our initial screening was done on a small library of about 1000 compounds. The assay is translatable to a HTS format.

[4] = tested on: sAPPα; test: sAPPα levels in the presence of ApoE4 (AlphaLISA); type: cell-based; details: in the presence of ApoE4 (ApoE4-transfected cells); listed as Alaproclate
Description: sAPPα or sAPPβ secreted into the cellular media are determined with sAPPα or sAPPβ AlphaLISA immunoassay kits (PerkinElmer) according to the manufacturer's protocol with some modifications. The standards, blanks, and media are diluted with the buffer provided in the kit and added to the plate. During the first incubation step, the analyte is captured either by an antibody recognizing the α-secretase cleavage site at sAPPα C-terminus (clone 2B3) or the sAPPβ C-terminus, and then by a second biotin-labeled antibody specific to the N-terminal common domain of sAPP. In the second incubation step, the biotinylated anti-analyte antibody is bound to the streptavidin-coated donor beads. At the end of this reaction, the plates are read on an EnSpire Alpha 2390 multilabel plate reader equipped with the AlphaScreen module. The Aβ1-42 or 1-40 are determined from media and/or cells using Life Science's sandwich ELISA kit. The levels of Aβ are quantified from a standard curve and normalized to total cellular protein (Spilman et al. (2014) Brain Res. 1551: 25-44; Theendakara et al. (2013) Proc. Natl. Acad. Sci. USA, 10(45): 18303-18308), Tau and p-tau are determined from cell extracts by a solid phase double antibody sandwich ELISA technology designed for quantitative determination of phospho-tau (Antibodies-Online). APP and p-APP are determined by the DuoSet IC ELISA (R&D Systems) to measure phosphorylated APP in cell lysates. An immobilized capture antibody specific for APP binds both phosphorylated and unphosphorylated APP. After unbound material is washed away, a biotinylated detection antibody is used to detect either APP or phosphor-APP utilizing a standard HRP format. Using these assay procedures we notice a significant increase in p-tau and p-APP levels in ApoE4-transfected cells. It can be determined whether the primary “hits” reverse the ApoE4-mediated APP-Thr phosphorylation and tau-phosphorylation.

[5] = Brain penetration after subcutaneous injection in mice; type: in vivo
Description: Pharmacokinetic (PK) analysis for CNS exposure studies can consist of a time course design to collect heparinized plasma and brains (Korfmacher et al. (2001) Rapid Commun. Mass. Spectrom. 15(5): 335-340; Mei et al. (2006) AAPS J. 8(3): E493-500; Spilman et al. (2014) Brain Res. 1551: 25-44). Five non-transgenic mice can be used for the PK studies, and 1, 2, 4, 6, and 8 hour time points taken. Following oral, and either sc or ip administration of the molecules at 10 mg/kg, plasma and brain levels of the compounds can be determined by quantitative LC/MS/MS methodology. Plasma samples can be precipitated with acetonitrile:methanol (1:1) cocktail containing an internal standard. The brain samples can be homogenized directly in ethylacetate or extracted from 5M guanidine homogenates with liquid-liquid method. The resulting supernatant can be evaporated to dryness and subjected to the LC/MS/MS analysis. For each compound 3 mice can be used for this analysis. The brain-to-plasma ratios and brain levels can then be calculated to identify the best candidate(s) for further efficacy testing.

[6] = tested on: ADAM10 mRNA; test: ADAM10 mRNA levels / transcription in A172 cells transfected with ApoE4; type: cell-based, human; details: A03 at 2 uM
[7] = Phase1 human trials, up to 200 mgs bid; cited from earlier work
[8] = rodents, high doses; cited from earlier work

## CC(N)C(=O)OC(C)(C)Cc1ccc(Cl)cc1 (centres unmarked) [Compound A03, 1-(4-chlorophenyl)-2-methylpropan-2-yl 2-aminopropanoate]
[1]
  p-Tau levels: decreased
[2]
  mRNA levels of SirT1: normalized; also recorded: normalize the mRNA levels for SirT1
[2]; listed as Alaproclate
  mRNA levels of SirT1: increased
[3]; N2A cells stably transfected with ApoE4
  EC20 for SirT1 enhancement: 200 nM
[3]; N2A cells stably transfected with ApoE4, read-out: EC50 for SirT1 enhancement
  EC50: ~2000 nM
[3]
  SirT1 levels (dose-response): generated a SirT1 dose-response; also recorded: SirT1 levels increasing with dose
[3]; listed as Alaproclate
  SirT1 levels (dose-response): increases
[3]; listed as alaproclate
  SirT1 levels (dose-response): increase SirT1 levels in a dose responsive manner
[4]
  sAPPα levels: increases
[5]
  brain penetration / brain permeability: excellent brain penetration
[5]; listed as alaproclate
  brain penetration / brain permeability: highly brain permeable
[5]; mouse, brain and plasma, sc, 10 mg/kg, read-out: brain/plasma (B/P)
  Kp: ~10
[6]
  ADAM10 mRNA levels / transcription: normalized; also recorded: normalization of ADAM10 transcription
[6]; listed as Alaproclate
  ADAM10 mRNA levels / transcription: increased
[7]
  adverse events: no observed adverse events
  global scores: some improvements in global scores
[8]
  liver toxicity: observed liver toxicity
